This note sets out measurements from patent US12492193B2, “Pyrazole derivatives for the treatment of cystic fibrosis” (Fondazione Istituto Italiano Di Tecnologia, priority 2017, dated 2025).

SMILES strings stand for the structures. pEC50: −log10 of the molar value.

The target in this experiment is T1, mutant CFTR (Homo sapiens, UniProt P13569, DEL508-508).
T1 construct: expressed in transfected cells
T1 sequence (P13569 with tags, fused parts or gaps DEL508-508): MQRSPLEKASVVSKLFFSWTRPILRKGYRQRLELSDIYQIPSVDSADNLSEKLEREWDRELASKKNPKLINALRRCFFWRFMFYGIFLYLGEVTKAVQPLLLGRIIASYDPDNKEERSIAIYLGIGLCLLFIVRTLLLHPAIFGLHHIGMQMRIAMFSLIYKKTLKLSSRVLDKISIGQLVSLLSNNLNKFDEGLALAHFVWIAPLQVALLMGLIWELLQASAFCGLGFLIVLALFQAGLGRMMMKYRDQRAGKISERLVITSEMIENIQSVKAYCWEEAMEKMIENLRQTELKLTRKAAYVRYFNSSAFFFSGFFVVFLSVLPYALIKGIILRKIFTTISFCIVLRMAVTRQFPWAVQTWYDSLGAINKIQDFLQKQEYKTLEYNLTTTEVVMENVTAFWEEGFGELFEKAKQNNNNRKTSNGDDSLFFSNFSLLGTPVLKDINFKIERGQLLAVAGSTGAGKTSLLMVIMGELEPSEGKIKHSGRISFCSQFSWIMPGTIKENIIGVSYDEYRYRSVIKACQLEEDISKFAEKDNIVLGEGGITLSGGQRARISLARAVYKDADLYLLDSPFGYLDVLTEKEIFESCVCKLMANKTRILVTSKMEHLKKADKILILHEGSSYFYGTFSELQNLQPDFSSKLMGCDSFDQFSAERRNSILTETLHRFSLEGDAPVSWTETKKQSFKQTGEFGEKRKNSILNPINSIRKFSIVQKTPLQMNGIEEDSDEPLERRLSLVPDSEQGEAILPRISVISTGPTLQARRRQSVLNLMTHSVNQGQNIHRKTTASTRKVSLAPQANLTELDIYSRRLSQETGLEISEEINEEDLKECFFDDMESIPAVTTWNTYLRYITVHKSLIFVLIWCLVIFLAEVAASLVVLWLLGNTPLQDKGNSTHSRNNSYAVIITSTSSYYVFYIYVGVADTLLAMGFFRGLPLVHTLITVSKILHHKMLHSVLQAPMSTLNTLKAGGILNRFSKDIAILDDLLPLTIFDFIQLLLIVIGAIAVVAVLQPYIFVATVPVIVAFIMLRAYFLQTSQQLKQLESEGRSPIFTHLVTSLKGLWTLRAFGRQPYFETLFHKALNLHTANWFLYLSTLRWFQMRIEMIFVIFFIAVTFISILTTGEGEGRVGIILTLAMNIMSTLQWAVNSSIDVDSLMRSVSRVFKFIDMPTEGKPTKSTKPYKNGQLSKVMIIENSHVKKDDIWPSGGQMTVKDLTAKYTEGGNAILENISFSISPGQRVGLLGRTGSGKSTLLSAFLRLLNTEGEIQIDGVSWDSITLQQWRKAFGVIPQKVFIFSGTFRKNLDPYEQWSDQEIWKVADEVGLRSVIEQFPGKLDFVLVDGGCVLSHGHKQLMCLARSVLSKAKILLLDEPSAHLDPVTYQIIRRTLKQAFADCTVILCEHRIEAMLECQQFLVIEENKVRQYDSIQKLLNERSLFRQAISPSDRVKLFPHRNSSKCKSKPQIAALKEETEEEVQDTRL
The experiment can be described thus: Fluorescence (HS-YFP) assay for CFTR activity, corrector assay. As to conditions: CFBE41o- and FRT cells with stable expression of mutant CFTR, 24 h compound treatment. In kind it is cell-based. An outline of the steps:
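Corrector activity: 24 h compound treatment of HS-YFP/mutant-CFTR CFBE41o- or FRT cells, followed by 30 min forskolin 20 μM + genistein 50 μM at 37° C. Iodide influx (100 mM final) was tracked as fluorescence quenching, with dF/dt extrapolated by exponential fitting; EC50 values derived.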
Turning to `CN(C(=O)c1cccc(-n2nc(C(F)(F)F)cc2-c2cccs2)c1)c1ccc2c(c1)OCO2` [compound 166, N-(1,3-Benzodioxol-5-yl)-N-methyl-3-[5-(2-thienyl)-3-(trifluoromethyl)pyrazol-1-yl]benzamide], the pEC50 is above 6.00. The same measure for `Cc1c(Cl)c(C(F)(F)F)nn1-c1cccc(C(=O)N(C)c2cc3c(cc2CO)OCO3)c1` [compound 168, 3-[4-chloro-5-methyl-3-(trifluoromethyl)pyrazol-1-yl]-N-[6-(hydroxymethyl)-1,3-benzodioxol-5-yl]-N-methyl-benzamide]: 5.70 to 6.00. The same measure for `Cc1cc(C(F)(F)F)n(-c2cc(C(=O)N(C)c3ccc4c(c3)OCO4)ccn2)n1` [compound 169, N-(1,3-Benzodioxol-5-yl)-N-methyl-2-[3-methyl-5-(trifluoromethyl)pyrazol-1-yl]pyridine-4-carboxamide]: below 5.70; for `Cc1nn(-c2cc(C(=O)N(C)c3ccc4c(c3)OCO4)ccn2)c(C(F)(F)F)c1Cl` [compound 170, N-(1,3-Benzodioxol-5-yl)-2-[4-chloro-3-methyl-5-(trifluoromethyl)pyrazol-1-yl]-N-methyl-pyridine-4-carboxamide]: below 5.70. For the compound `Cc1c(Cl)c(C(F)(F)F)nn1-c1cc(C(=O)N(C)c2ccc3c(c2)OCO3)ccn1` [compound 171, N-(1,3-Benzodioxol-5-yl)-2-[4-chloro-5-methyl-3-(trifluoromethyl)pyrazol-1-yl]-N-methyl-pyridine-4-carboxamide], the negative logarithm of the EC50 (pEC50) is above 6.00.

Regarding `Cc1nc2ccc(NC(=O)c3cccc(-n4nc(C(F)(F)F)c(Cl)c4COc4ccc(C(=O)OC(C)(C)C)cc4)c3)cn2n1` [compound 173, tert-Butyl 4-[[4-chloro-2-[3-[(2-methyl-[1,2,4]triazolo[1,5-a]pyridin-6-yl)carbamoyl]phenyl]-5-(trifluoromethyl)pyrazol-3-yl]methoxy]benzoate], the pEC50 is below 5.70. As for `O=C(O)c1ccc(OCc2c(Cl)c(C(F)(F)F)nn2-c2cccc(C(=O)Nc3ccc4c(c3)OC(F)(F)O4)c2)cc1` [compound 174, 4-[[4-Chloro-2-[3-[(2,2-difluoro-1,3-benzodioxol-5-yl)carbamoyl]phenyl]-5-(trifluoromethyl)pyrazol-3-yl]methoxy] benzoic acid], the pEC50 is below 5.70. In the case of `CN(C(=O)c1cccc(-n2nc(C(F)(F)F)c(Cl)c2COc2ccc(C(=O)OC(C)(C)C)cc2)c1)c1ccc2c(c1)OC(F)(F)O2` [compound 175, Tert-butyl 4-[[4-chloro-2-[3-[(2,2-difluoro-1,3-benzodioxol-5-yl)-methyl-carbamoyl]phenyl]-5-(trifluoromethyl)pyrazol-3-yl]methoxy]benzoate], the negative logarithm of the EC50 (pEC50) is above 6.00. As to `CN(C(=O)c1cccc(-n2nc(C(F)(F)F)cc2-c2ccccc2C(F)(F)F)c1)c1ccc2c(c1)OCO2` [compound 176, N-(1,3-Benzodioxol-5-yl)-N-methyl-3-[3-(trifluoromethyl)-5-[2-(trifluoromethyl)phenyl]pyrazol-1-yl]benzamide], the pEC50 is above 6.00.

Consider `CN(C(=O)c1cccc(-n2nc(C(F)(F)F)c(Cl)c2COc2ccc(C(=O)O)cc2)c1)c1ccc2c(c1)OC(F)(F)O2` [compound 177, 4-[[4-chloro-2-[3-[(2,2-difluoro-1,3-benzodioxol-5-yl)-methyl-carbamoyl]phenyl]-5-(trifluoromethyl)pyrazol-3-yl]methoxy]benzoic acid], for which the negative logarithm of the EC50 (pEC50) was above 6.00.

`Cc1c(Cl)c(C(F)(F)F)nn1-c1cccc(C(=O)N(C)c2cc3c(cc2C(=O)O)OCO3)c1` [compound 179, 6-[[3-[4-chloro-5-methyl-3-(trifluoromethyl)pyrazol-1-yl]benzoyl]-methyl-amino]-1,3-benzodioxole-5-carboxylic acid]: the pEC50 is below 5.70.

Turning to `CN(C(=O)c1cccc(-n2nc(C(F)(F)F)c(C=O)c2Oc2ccccc2)c1)c1ccc2c(c1)OCO2` [compound 180, N-(1,3-Benzodioxol-5-yl)-3-[4-formyl-5-phenoxy-3-(trifluoromethyl)pyrazol-1-yl]-N-methyl-benzamide], the pEC50 was above 6.00. `[2H]C([2H])([2H])N(C(=O)c1cccc(-n2nc(C(F)(F)F)c(Cl)c2COc2ccc(C(=O)OC(C)(C)C)cc2)c1)c1ccc2c(c1)OC(F)(F)O2` [compound 181, Tert-butyl 4-[[4-chloro-2-[3-[(2,2-difluoro-1,3-benzodioxol-5-yl)-(trideuteriomethyl)carbamoyl]phenyl]-5-(trifluoromethyl)pyrazol-3-yl]methoxy]benzoate]: the negative-log EC50 (pEC50) was above 6.00. On to `[2H]C([2H])([2H])N(C(=O)c1cccc(-n2nc(C(F)(F)F)c(Cl)c2COc2ccc(C(=O)O)cc2)c1)c1ccc2c(c1)OC(F)(F)O2` [compound 182, 4-[[4-Chloro-2-[3-[(2,2-difluoro-1,3-benzodioxol-5-yl)-(trideuteriomethyl)carbamoyl]phenyl]-5-(trifluoromethyl)pyrazol-3-yl]methoxy]benzoic acid], for which the pEC50 is above 6.00. In the case of `COc1ccccc1-c1c(Cl)c(C(F)(F)F)nn1-c1cccc(C(=O)N(C)c2ccc3c(c2)OCO3)c1` [compound 183, N-(1,3-Benzodioxol-5-yl)-3-[4-chloro-5-(2-methoxyphenyl)-3-(trifluoromethyl)pyrazol-1-yl]-N-methyl-benzamide], the pEC50 was above 6.00. The same measure for `COc1ccccc1-c1cc(C(F)(F)F)nn1-c1cccc(C(=O)N(C)c2ccc3c(c2)OCO3)c1` [compound 184, N-(1,3-Benzodioxol-5-yl)-3-[5-(2-methoxyphenyl)-3-(trifluoromethyl)pyrazol-1-yl]-N-methyl-benzamide]: above 6.00; for `CN(C(=O)c1cccc(-n2nc(C(F)(F)F)c(C#N)c2Oc2ccccc2)c1)c1ccc2c(c1)OCO2` [compound 185, N-(1,3-Benzodioxol-5-yl)-3-[4-cyano-5-phenoxy-3-(trifluoromethyl)pyrazol-1-yl]-N-methyl-benzamide]: above 6.00. On to `Cc1c(C=O)c(C(F)(F)F)nn1-c1cccc(C(=O)N(C)c2ccc3c(c2)OCO3)c1` [compound 186, N-(1,3-Benzodioxol-5-yl)-3-[4-formyl-5-methyl-3-(trifluoromethyl)pyrazol-1-yl]-N-methyl-benzamide], for which the negative-log EC50 (pEC50) is above 6.00. The same measure for `Cc1c(C#N)c(C(F)(F)F)nn1-c1cccc(C(=O)N(C)c2ccc3c(c2)OCO3)c1` [compound 187, N-(1,3-Benzodioxol-5-yl)-3-[4-cyano-5-methyl-3-(trifluoromethyl)pyrazol-1-yl]-N-methyl-benzamide]: above 6.00.

Take `Cc1nc2ccc(N(C)C(=O)c3cccc(-n4nc(C(F)(F)F)cc4OCc4ccc(C(=O)OC(C)(C)C)cc4)c3)cc2o1` [compound 188, Tert-butyl 4-[[2-[3-[methyl-(2-methyl-1,3-benzoxazol-6-yl)carbamoyl]phenyl]-5-(trifluoromethyl)pyrazol-3-yl]oxymethyl]benzoate]: the negative-log EC50 (pEC50) is above 6.00. Next, `Cc1nc2cc(F)c(N(C)C(=O)c3cccc(-n4nc(C(F)(F)F)cc4OCc4ccc(C(=O)OC(C)(C)C)cc4)c3)cc2o1` [compound 189, Tert-butyl 4-[[2-[3-[(5-fluoro-2-methyl-1,3-benzoxazol-6-yl)-methyl-carbamoyl]phenyl]-5-(trifluoromethyl)pyrazol-3-yl]oxymethyl]benzoate]: above 6.00; `Cc1nc2ccc(N(C)C(=O)c3cccc(-n4nc(C(F)(F)F)c(Cl)c4OCc4ccc(C(=O)OC(C)(C)C)cc4)c3)cc2o1` [compound 190, Tert-butyl 4-[[4-chloro-2-[3-[methyl-(2-methyl-1,3-benzoxazol-6-yl)carbamoyl]phenyl]-5-(trifluoromethyl)pyrazol-3-yl]oxymethyl]benzoate]: above 6.00. The same measure for `CN(C(=O)c1cccc(-n2nc(C(F)(F)F)cc2OCc2ccc(C(=O)OC(C)(C)C)cc2)c1)c1ccc2c(c1)OC(F)(F)O2` [compound 191, Tert-butyl 4-[[2-[3-[(2,2-difluoro-1,3-benzodioxol-5-yl)-methyl-carbamoyl]phenyl]-5-(trifluoromethyl)pyrazol-3-yl]oxymethyl]benzoate]: above 6.00. Regarding `CN(C(=O)c1cccc(-n2nc(-c3ccccn3)cc2C(F)(F)F)c1)c1ccc2c(c1)OCO2` [compound 192, N-(1,3-benzodioxol-5-yl)-N-methyl-3-[3-(2-pyridyl)-5-(trifluoromethyl)pyrazol-1-yl]benzamide], the pEC50 is 5.70 to 6.00.

Take `CN(C(=O)c1cccc(-n2nc(C(F)(F)F)cc2-c2cccnc2)c1)c1ccc2c(c1)OCO2` [compound 193, N-(1,3-Benzodioxol-5-yl)-N-methyl-3-[5-(3-pyridyl)-3-(trifluoromethyl)pyrazol-1-yl]benzamide]: the negative-log EC50 (pEC50) is above 6.00. Take `CN(C(=O)c1cccc(-n2nc(-c3cccnc3)cc2C(F)(F)F)c1)c1ccc2c(c1)OCO2` [compound 194, N-(1,3-Benzodioxol-5-yl)-N-methyl-3-[3-(3-pyridyl)-5-(trifluoromethyl)pyrazol-1-yl]benzamide]: the negative logarithm of the EC50 (pEC50) was 5.70 to 6.00. The same measure for `Cc1nc2ccc(N(C)C(=O)c3cccc(-n4nc(C(F)(F)F)cc4OCc4ccc(C(=O)O)cc4)c3)cc2o1` [compound 195, 4-[[2-[3-[Methyl-(2-methyl-1,3-benzoxazol-6-yl)carbamoyl]phenyl]-5-(trifluoromethyl)pyrazol-3-yl]oxymethyl]benzoic acid]: above 6.00; for `Cc1nc2cc(F)c(N(C)C(=O)c3cccc(-n4nc(C(F)(F)F)cc4OCc4ccc(C(=O)O)cc4)c3)cc2o1` [compound 196, 4-[[2-[3-[(5-Fluoro-2-methyl-1,3-benzoxazol-6-yl)-methyl-carbamoyl]phenyl]-5-(trifluoromethyl)pyrazol-3-yl]oxymethyl]benzoic acid]: above 6.00. As to `CN(C(=O)c1cccc(-n2nc(C(F)(F)F)cc2OCc2ccc(C(=O)O)cc2)c1)c1ccc2c(c1)OC(F)(F)O2` [compound 197, 4-[[2-[3-[(2,2-difluoro-1,3-benzodioxol-5-yl)-methyl-carbamoyl]phenyl]-5-(trifluoromethyl)pyrazol-3-yl]oxymethyl]benzoic acid], the pEC50 was above 6.00.

By pEC50 is commonly meant the EC50 on a negative log10 scale, so that one unit is a factor of ten.
